Experimental data as given in ChEMBL document CHEMBL1201862, “PubChem BioAssay data set” (2004).
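These data come from cells grown in 96-well plates and exposed to compound for 48 hours at five concentrations. Here, GI50 denotes the concentration required for 50% inhibition of growth.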 Activity calls are given as the source filed them. No stated cut-off is given here; in the data, active = GI50 up to about 1.1 µM and inactive = higher.

Tests used:
Test in all cases: DTP human tumour cell line panel, 48 h
BT-549 = system: BT-549
MCF7 = system: MCF7
HCT-15 = system: HCT-15
HCT-116 = system: HCT-116
U-251 = system: U-251
NCI-H460 = system: NCI-H460
PC-3 = system: PC-3
Hs-578T = system: Hs-578T
786-0 = system: 786-0
M14 = system: M14
MDA-MB-435 = system: MDA-MB-435
SW-620 = system: SW-620
UO-31 = system: UO-31
HOP-62 = system: HOP-62
A498 = system: A498
SF-268 = system: SF-268
NCI-H23 = system: NCI-H23
SNB-75 = system: SNB-75
SK-MEL-2 = system: SK-MEL-2
HCC 2998 = system: HCC 2998

Fc1ccc(C(=C2CCN(CCc3ccc4[nH]c(=S)[nH]c4c3)CC2)c2ccc(F)cc2)cc1
GI50 (BT-549): 5.98 µM (inactive) | GI50 (MCF7): 2.21 µM (inactive) | GI50 (HCT-15): 3.15 µM | GI50 (HCT-116): 1.79 µM (inactive) | GI50 (U-251): 4.48 µM (inactive) | GI50 (NCI-H460): 2.83 µM (inactive) | GI50 (PC-3): 2.73 µM (inactive) | GI50 (Hs-578T): 10.9 µM (inactive) | GI50 (786-0): 1.86 µM (inactive) | GI50 (M14): 1.83 µM (inactive) | GI50 (MDA-MB-435): 1.79 µM (inactive) | GI50 (SW-620): 2.47 µM (inactive) | GI50 (UO-31): 2.67 µM (inactive) | GI50 (HOP-62): 15.8 µM (inactive) | GI50 (A498): 8.38 µM (inactive) | GI50 (SF-268): 6.65 µM (inactive) | GI50 (NCI-H23): 5.02 µM (inactive) | GI50 (SNB-75): 2.92 µM (inactive) | GI50 (SK-MEL-2): 2.7 µM (inactive)

Cc1cc(C)nc(NS(=O)(=O)c2ccc(NNc3c4ccccc4nc4c(C(=O)Nc5ccc(S(=O)(=O)Nc6ncccn6)cc5)cccc34)cc2)n1
GI50 (BT-549): 36.8 µM (inactive) | GI50 (MCF7): 52.8 µM (inactive) | GI50 (HCT-15): 32.7 µM | GI50 (HCT-116): 17.4 µM (inactive) | GI50 (U-251): 21.8 µM (inactive) | GI50 (NCI-H460): 25.6 µM (inactive) | GI50 (PC-3): 26.5 µM (inactive) | GI50 (Hs-578T): 71.8 µM (inactive) | GI50 (786-0): 39.3 µM (inactive) | GI50 (M14): 33.7 µM (inactive) | GI50 (MDA-MB-435): 21.5 µM (inactive) | GI50 (SW-620): 21.6 µM (inactive) | GI50 (UO-31): 30.2 µM (inactive) | GI50 (HCC 2998): 26.7 µM (inactive) | GI50 (HOP-62): 33.5 µM (inactive) | GI50 (SF-268): 31.9 µM (inactive) | GI50 (NCI-H23): 23 µM (inactive) | GI50 (SNB-75): 37.5 µM (inactive) | GI50 (SK-MEL-2): 16.2 µM (inactive)

CCCCn1c(C)c(C)c2c1NN=C(C#N)S2(=O)=O
GI50 (BT-549): > 100 µM (inactive) | GI50 (MCF7): > 100 µM (inactive) | GI50 (HCT-15): > 100 µM | GI50 (HCT-116): > 100 µM (inactive) | GI50 (U-251): > 100 µM (inactive) | GI50 (NCI-H460): > 100 µM (inactive) | GI50 (PC-3): > 100 µM (inactive) | GI50 (Hs-578T): > 100 µM (inactive) | GI50 (786-0): > 100 µM (inactive) | GI50 (M14): > 100 µM (inactive) | GI50 (MDA-MB-435): > 100 µM (inactive) | GI50 (SW-620): > 100 µM (inactive) | GI50 (UO-31): > 100 µM (inactive) | GI50 (HCC 2998): > 100 µM (inactive) | GI50 (HOP-62): > 100 µM (inactive) | GI50 (SF-268): > 100 µM (inactive) | GI50 (NCI-H23): > 100 µM (inactive) | GI50 (SNB-75): > 100 µM (inactive) | GI50 (SK-MEL-2): > 100 µM (inactive)

C=C1CC[C@@]2(C)[C@@H]([C@@H]1C)[C@H]1CC[C@@H]3[C@@]4(C)CC[C@H](O)C(C)(C)[C@@H]4CC[C@@]3(C)[C@]1(C)C[C@@H]2O
GI50 (BT-549): 10 µM (inactive) | GI50 (MCF7): 2.13 µM (inactive) | GI50 (HCT-15): 3.24 µM | GI50 (HCT-116): 2.99 µM (inactive) | GI50 (U-251): 1.73 µM (inactive) | GI50 (NCI-H460): 2.11 µM (inactive) | GI50 (PC-3): 2.86 µM (inactive) | GI50 (Hs-578T): 2.69 µM (inactive) | GI50 (786-0): 2.7 µM (inactive) | GI50 (M14): 4.66 µM (inactive) | GI50 (MDA-MB-435): 4.22 µM (inactive) | GI50 (SW-620): 4.03 µM (inactive) | GI50 (UO-31): 2.5 µM (inactive) | GI50 (HOP-62): 2.24 µM (inactive) | GI50 (A498): 2.16 µM (inactive) | GI50 (SF-268): 2.28 µM (inactive) | GI50 (NCI-H23): 2.48 µM (inactive) | GI50 (SK-MEL-2): 3.67 µM (inactive)

NC1CC(N)c2c(Br)sc(Br)c21 (stereo not given)
GI50 (BT-549): > 100 µM (inactive) | GI50 (MCF7): > 100 µM (inactive) | GI50 (HCT-15): > 100 µM | GI50 (HCT-116): 87.9 µM (inactive) | GI50 (U-251): > 100 µM (inactive) | GI50 (NCI-H460): > 100 µM (inactive) | GI50 (Hs-578T): > 100 µM (inactive) | GI50 (786-0): 95.3 µM (inactive) | GI50 (M14): > 100 µM (inactive) | GI50 (MDA-MB-435): > 100 µM (inactive) | GI50 (SW-620): 62.2 µM (inactive) | GI50 (UO-31): 41.4 µM (inactive) | GI50 (HCC 2998): 55.8 µM (inactive) | GI50 (HOP-62): 86.1 µM (inactive) | GI50 (A498): > 100 µM (inactive) | GI50 (SF-268): 67.3 µM (inactive) | GI50 (NCI-H23): > 100 µM (inactive) | GI50 (SK-MEL-2): > 100 µM (inactive)

N=C(N)NCCCC(=O)O
GI50 (BT-549): > 100 µM (inactive) | GI50 (MCF7): > 100 µM (inactive) | GI50 (HCT-15): > 100 µM | GI50 (HCT-116): > 100 µM (inactive) | GI50 (U-251): > 100 µM (inactive) | GI50 (NCI-H460): > 100 µM (inactive) | GI50 (PC-3): > 100 µM (inactive) | GI50 (Hs-578T): > 100 µM (inactive) | GI50 (786-0): > 100 µM (inactive) | GI50 (M14): > 100 µM (inactive) | GI50 (MDA-MB-435): > 100 µM (inactive) | GI50 (SW-620): > 100 µM (inactive) | GI50 (UO-31): > 100 µM (inactive) | GI50 (HOP-62): > 100 µM (inactive) | GI50 (A498): > 100 µM (inactive) | GI50 (SF-268): > 100 µM (inactive) | GI50 (NCI-H23): > 100 µM (inactive) | GI50 (SNB-75): > 100 µM (inactive) | GI50 (SK-MEL-2): > 100 µM (inactive)

COc1ccc(C(=O)c2sc(Nc3ccccc3)nc2N)cc1
GI50 (BT-549): > 100 µM (inactive) | GI50 (MCF7): 4.9 µM (inactive) | GI50 (HCT-15): 3.84 µM | GI50 (U-251): 12.7 µM (inactive) | GI50 (NCI-H460): > 100 µM (inactive) | GI50 (PC-3): > 72.8 µM (inactive) | GI50 (Hs-578T): 23.3 µM (inactive) | GI50 (786-0): 13.1 µM (inactive) | GI50 (M14): > 100 µM (inactive) | GI50 (MDA-MB-435): 1.36 µM (inactive) | GI50 (SW-620): 2.69 µM (inactive) | GI50 (UO-31): 55.8 µM (inactive) | GI50 (HCC 2998): > 100 µM (inactive) | GI50 (HOP-62): 21 µM (inactive) | GI50 (A498): > 100 µM (inactive) | GI50 (SF-268): 28.4 µM (inactive) | GI50 (NCI-H23): > 100 µM (inactive) | GI50 (SK-MEL-2): 4.88 µM (inactive)
